Structures are written as SMILES. Where a chain is given by its changes, count along the chain named.

The target in one assay is T1, AR protein (Homo sapiens, UniProt P10275, T878A).
T1 construct: degradation activity of the compounds disclosed in the present disclosure on AR protein in LNCaP cells; host or cells: LNCaP FGC
T1 sequence (P10275 1-920 T878A): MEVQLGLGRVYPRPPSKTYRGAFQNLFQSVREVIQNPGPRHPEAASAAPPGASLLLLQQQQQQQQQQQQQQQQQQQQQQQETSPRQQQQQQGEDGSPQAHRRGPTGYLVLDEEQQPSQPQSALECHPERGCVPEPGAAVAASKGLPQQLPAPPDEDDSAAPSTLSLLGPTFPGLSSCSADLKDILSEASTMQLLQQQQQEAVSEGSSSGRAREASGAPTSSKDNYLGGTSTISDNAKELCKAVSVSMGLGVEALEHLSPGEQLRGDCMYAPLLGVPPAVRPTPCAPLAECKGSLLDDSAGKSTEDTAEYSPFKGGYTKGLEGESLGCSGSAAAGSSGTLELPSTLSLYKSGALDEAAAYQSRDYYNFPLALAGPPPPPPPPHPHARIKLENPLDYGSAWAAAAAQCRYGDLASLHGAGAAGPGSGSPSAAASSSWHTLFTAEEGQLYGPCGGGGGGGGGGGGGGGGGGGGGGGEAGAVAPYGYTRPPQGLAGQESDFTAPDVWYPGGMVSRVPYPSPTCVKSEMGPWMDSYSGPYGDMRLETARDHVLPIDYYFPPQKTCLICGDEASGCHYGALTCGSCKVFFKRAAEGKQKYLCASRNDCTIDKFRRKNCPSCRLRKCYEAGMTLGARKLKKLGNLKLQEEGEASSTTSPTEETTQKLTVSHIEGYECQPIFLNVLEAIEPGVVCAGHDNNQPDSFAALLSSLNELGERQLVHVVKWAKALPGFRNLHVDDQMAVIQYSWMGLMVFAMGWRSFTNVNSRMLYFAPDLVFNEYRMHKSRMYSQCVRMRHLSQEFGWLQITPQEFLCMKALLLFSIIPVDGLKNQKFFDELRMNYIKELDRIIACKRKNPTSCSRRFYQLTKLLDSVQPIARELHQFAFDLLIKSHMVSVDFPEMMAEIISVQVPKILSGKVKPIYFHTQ
As to the kind of experiment: Degradation of AR protein in LNCaP cells (Western blot). The assay is classed as cell-based. The settings on record: LNCaP cells, compound 10 nM, 8 hours, Western blot grayscale, GAPDH internal reference; read-out: Degradation rates of the AR protein in LNCaP cells, 10 nM (%). The essentials:
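Percent AR degradation was derived from GAPDH-normalised Western blot band intensities (infrared detection) in LNCaP lysates.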
Background: Immunoblotting shows a protein as a band on a membrane.
As for `N#Cc1ccc(O[C@H]2CC[C@H](NC(=O)c3ccc(N4CC(N5CCC6(CC5)COc5c6ccc6c5C(=O)N(C5CCC(=O)NC5=O)C6=O)C4)nn3)CC2)cc1Cl` (stereo partly drawn) [Compound 142], the inhibition at 0.01 µM stood at 29%.

Regarding `N#Cc1ccc(O[C@H]2CC[C@H](NC(=O)c3ccc(N4CCC(F)(CN5CCC6(CC5)COc5ccc7c(c5C6)C(=O)N(C5CCC(=O)NC5=O)C7)CC4)nn3)CC2)cc1Cl` (stereo partly drawn) [Compound 147], the inhibition at 0.01 µM was -3%.

Consider `COC1(CN2CCC3(CC2)COc2ccc4c(c2C3)C(=O)N(C2CCC(=O)NC2=O)C4)CCN(c2ccc(C(=O)N[C@H]3CC[C@H](Oc4ccc(C#N)c(Cl)c4)CC3)nn2)CC1` (stereo partly drawn) [Compound 148], for which the inhibition at 0.01 µM amounted to 38%.

On to `N#Cc1ccc(O[C@H]2CC[C@H](NC(=O)c3ccc(N4CCC5(CCC(N6CCC7(CC6)COc6ccc8c(c6C7)C(=O)N(C6CCC(=O)NC6=O)C8)CC5)CC4)nn3)CC2)cc1Cl` (stereo partly drawn) [Compound 149], for which the inhibition at 0.01 µM is 1%.

The same assay, now with this note: LNCaP cells, compound 100 nM, 8 hours, Western blot grayscale, GAPDH internal reference; read-out: Degradation rates of the AR protein in LNCaP cells, 100 nM (%).
In the case of `N#Cc1ccc(O[C@H]2CC[C@H](NC(=O)c3ccc(N4CC(N5CCC6(CC5)COc5c6ccc6c5C(=O)N(C5CCC(=O)NC5=O)C6=O)C4)nn3)CC2)cc1Cl` (stereo partly drawn) [Compound 142], the inhibition at 0.1 µM is 52%.

For the molecule `N#Cc1ccc(O[C@H]2CC[C@H](NC(=O)c3ccc(N4CCC(F)(CN5CCC6(CC5)COc5ccc7c(c5C6)C(=O)N(C5CCC(=O)NC5=O)C7)CC4)nn3)CC2)cc1Cl` (stereo partly drawn) [Compound 147], the inhibition at 0.1 µM is 14%.

On to `COC1(CN2CCC3(CC2)COc2ccc4c(c2C3)C(=O)N(C2CCC(=O)NC2=O)C4)CCN(c2ccc(C(=O)N[C@H]3CC[C@H](Oc4ccc(C#N)c(Cl)c4)CC3)nn2)CC1` (stereo partly drawn) [Compound 148], for which the inhibition at 0.1 µM amounted to 36%.

As to `N#Cc1ccc(O[C@H]2CC[C@H](NC(=O)c3ccc(N4CCC5(CCC(N6CCC7(CC6)COc6ccc8c(c6C7)C(=O)N(C6CCC(=O)NC6=O)C8)CC5)CC4)nn3)CC2)cc1Cl` (stereo partly drawn) [Compound 149], the inhibition at 0.1 µM turned out to be 1%.

The next assay deals with T2, AR protein (Homo sapiens, UniProt P10275).
T2 construct: degradation activity of the compounds disclosed in the present disclosure on AR protein in VCaP cells; host or cells: VCaP
T2 sequence (P10275 1-920): T1 sequence (P10275 1-920 T878A) with A878T
In words: Degradation of AR protein in VCaP cells (Western blot). Format: cell-based. The settings on record: compound at 10 nM, 8 hours, read-out: Degradation rate of the AR protein in VCaP cells, 10 nM (%). In short, it runs like this:
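Western blot readout: AR band grayscale normalised to GAPDH, used to derive degradation rate. Lysates came from VCaP cells exposed to compound for 8 h, with solvent controls run in parallel.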
With `N#Cc1ccc(O[C@H]2CC[C@H](NC(=O)c3ccc(N4CC(N5CCC6(CC5)COc5c6ccc6c5C(=O)N(C5CCC(=O)NC5=O)C6=O)C4)nn3)CC2)cc1Cl` (stereo partly drawn) [Compound 142], the inhibition at 0.01 µM stood at 26%.

Regarding `N#Cc1ccc(O[C@H]2CC[C@H](NC(=O)c3ccc(N4CCC(F)(CN5CCC6(CC5)COc5ccc7c(c5C6)C(=O)N(C5CCC(=O)NC5=O)C7)CC4)nn3)CC2)cc1Cl` (stereo partly drawn) [Compound 147], the inhibition at 0.01 µM came to 24%.

As for `COC1(CN2CCC3(CC2)COc2ccc4c(c2C3)C(=O)N(C2CCC(=O)NC2=O)C4)CCN(c2ccc(C(=O)N[C@H]3CC[C@H](Oc4ccc(C#N)c(Cl)c4)CC3)nn2)CC1` (stereo partly drawn) [Compound 148], the inhibition at 0.01 µM was found to be 18%.

Turning to `N#Cc1ccc(O[C@H]2CC[C@H](NC(=O)c3ccc(N4CCC5(CCC(N6CCC7(CC6)COc6ccc8c(c6C7)C(=O)N(C6CCC(=O)NC6=O)C8)CC5)CC4)nn3)CC2)cc1Cl` (stereo partly drawn) [Compound 149], the inhibition at 0.01 µM is -4%.

The same assay, now with this note: compound at 100 nM, 8 hours, read-out: Degradation rate of the AR protein in VCaP cells, 100 nM (%).
For the molecule `N#Cc1ccc(O[C@H]2CC[C@H](NC(=O)c3ccc(N4CC(N5CCC6(CC5)COc5c6ccc6c5C(=O)N(C5CCC(=O)NC5=O)C6=O)C4)nn3)CC2)cc1Cl` (stereo partly drawn) [Compound 142], the inhibition at 0.1 µM worked out at 74%.

Consider `N#Cc1ccc(O[C@H]2CC[C@H](NC(=O)c3ccc(N4CCC(F)(CN5CCC6(CC5)COc5ccc7c(c5C6)C(=O)N(C5CCC(=O)NC5=O)C7)CC4)nn3)CC2)cc1Cl` (stereo partly drawn) [Compound 147], for which the inhibition at 0.1 µM was 47%.

`COC1(CN2CCC3(CC2)COc2ccc4c(c2C3)C(=O)N(C2CCC(=O)NC2=O)C4)CCN(c2ccc(C(=O)N[C@H]3CC[C@H](Oc4ccc(C#N)c(Cl)c4)CC3)nn2)CC1` (stereo partly drawn) [Compound 148]: the inhibition at 0.1 µM was 35%.

Consider `N#Cc1ccc(O[C@H]2CC[C@H](NC(=O)c3ccc(N4CCC5(CCC(N6CCC7(CC6)COc6ccc8c(c6C7)C(=O)N(C6CCC(=O)NC6=O)C8)CC5)CC4)nn3)CC2)cc1Cl` (stereo partly drawn) [Compound 149], for which the inhibition at 0.1 µM came out at 26%.

A further assay concerns LNCaP FGC cells. As to the kind of experiment: Inhibition of proliferation of LNCaP cells (WST-8). Format: cell-based. The settings on record: Homo sapiens, LNCaP, 96 h, LNCaP FGC cells, 96 hours, WST-8 absorbance at 450 nm; read-out: IC50 for inhibiting the proliferation of LNCaP cells. As for the experimental part:
The cells were cultured in a cell culture incubator with 5% CO2 at 37° C. overnight. […] On the sixth day, 96 well plates were taken out, and 20 μL of WST-8 (Beytime, C0040) reagent was added to each well.
In general terms: Formazan colour is commonly taken as a measure of viable cells.
In the case of `N#Cc1ccc(O[C@H]2CC[C@H](NC(=O)c3ccc(N4CC(N5CCC6(CC5)COc5c6ccc6c5C(=O)N(C5CCC(=O)NC5=O)C6=O)C4)nn3)CC2)cc1Cl` (stereo partly drawn) [Compound 142], the IC50 is greater than 90 µM.

On to `N#Cc1ccc(O[C@H]2CC[C@H](NC(=O)c3ccc(N4CCC(F)(CN5CCC6(CC5)COc5ccc7c(c5C6)C(=O)N(C5CCC(=O)NC5=O)C7)CC4)nn3)CC2)cc1Cl` (stereo partly drawn) [Compound 147], for which the IC50 came out at 17 µM.

Take `COC1(CN2CCC3(CC2)COc2ccc4c(c2C3)C(=O)N(C2CCC(=O)NC2=O)C4)CCN(c2ccc(C(=O)N[C@H]3CC[C@H](Oc4ccc(C#N)c(Cl)c4)CC3)nn2)CC1` (stereo partly drawn) [Compound 148]: the IC50 turned out to be 8.66 µM.

Take `N#Cc1ccc(O[C@H]2CC[C@H](NC(=O)c3ccc(N4CCC5(CCC(N6CCC7(CC6)COc6ccc8c(c6C7)C(=O)N(C6CCC(=O)NC6=O)C8)CC5)CC4)nn3)CC2)cc1Cl` (stereo partly drawn) [Compound 149]: the IC50 amounted to 3.73 µM.

Another assay relates to VCaP cells. As to the kind of experiment: Inhibition of proliferation of VCaP cells (WST-8). The assay is classed as cell-based. The settings on record: Homo sapiens; VCaP cells, 168 hours, WST-8 absorbance at 450 nm; read-out: IC50 for inhibiting the proliferation of VCaP cells. The essentials:
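Proliferation was read by WST-8 on day nine. Cells were VCaP FGC, seeded at 15000 cells per well in 10% FBS DMEM and kept at 37° C with 5% CO2.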
Turning to `N#Cc1ccc(O[C@H]2CC[C@H](NC(=O)c3ccc(N4CC(N5CCC6(CC5)COc5c6ccc6c5C(=O)N(C5CCC(=O)NC5=O)C6=O)C4)nn3)CC2)cc1Cl` (stereo partly drawn) [Compound 142], the IC50 is 15.1 µM.

As for `N#Cc1ccc(O[C@H]2CC[C@H](NC(=O)c3ccc(N4CCC(F)(CN5CCC6(CC5)COc5ccc7c(c5C6)C(=O)N(C5CCC(=O)NC5=O)C7)CC4)nn3)CC2)cc1Cl` (stereo partly drawn) [Compound 147], the IC50 came out at 2.99 µM.

Take `COC1(CN2CCC3(CC2)COc2ccc4c(c2C3)C(=O)N(C2CCC(=O)NC2=O)C4)CCN(c2ccc(C(=O)N[C@H]3CC[C@H](Oc4ccc(C#N)c(Cl)c4)CC3)nn2)CC1` (stereo partly drawn) [Compound 148]: the IC50 was 4.01 µM.

In the case of `N#Cc1ccc(O[C@H]2CC[C@H](NC(=O)c3ccc(N4CCC5(CCC(N6CCC7(CC6)COc6ccc8c(c6C7)C(=O)N(C6CCC(=O)NC6=O)C8)CC5)CC4)nn3)CC2)cc1Cl` (stereo partly drawn) [Compound 149], the IC50 worked out at 3.17 µM.

The values are drawn from patent publication US20260234157A1, “COMPOUND AND METHOD FOR TARGETED DEGRADATION OF ANDROGEN RECEPTOR” (Gan & Lee Pharmaceuticals Co., Ltd., priority 2023, published 2026).
